According to ChEMBL document CHEMBL3227967, “Quantitative structure-activity relationships in 1-aryl-2-(alkylamino)ethanol antimalarials” (J Med Chem, 1979):

Tested on: Plasmodium berghei
Assay: Antimalarial activity against Plasmodium berghei
Type: functional

Point of comparison: CCCCN(CCCC)CC(O)c1cc2ccccc2c2c(Cl)cccc12 (configuration not stated), “log(1/C)” value 2.77. Against it:
- Cc1cccc2c(C(O)CC3CCCCN3)cc(-c3ccc(F)cc3)nc12 (configuration not stated) — higher, 3.72
- CCCCN(CCCC)CC(O)c1cc(-c2ccc(C)cc2)nc2c(C)cc(C)cc12 (configuration not stated) — within 0.2 log units, 2.72
- CCCCNCC(O)c1cc(-c2ccc(Cl)cc2)nc2cc(Cl)c(OC)cc12 (configuration not stated) — higher, 3.88
- CCCCNc1cc(C(O)CC2CCCCN2)c2ccccc2n1 (configuration not stated) — lower, 2.41
- CC(C)(C)NCC(O)c1cc2ccccc2c2ccccc12 (configuration not stated) — lower, 2.09
- OC(CC1CCCCN1)c1cc2cc(Cl)c(Cl)cc2c2cc(Cl)ccc12 (configuration not stated) — higher, 3.69
- CCCCCCCN(CCCCCCC)CC(O)c1cc(-c2ccc(Cl)cc2)cc2cc(Cl)c(OC)cc12 (configuration not stated) — higher, 3.31
- CCCCCCCN(CCCCCCC)CC(O)c1cc2ccc(I)cc2c2cc(C(F)(F)F)ccc12 (configuration not stated) — higher, 3.55
- CCCCN(CCCC)CC(O)c1cc(C23CC4CC(CC(C4)C2)C3)nc2c(C(F)(F)F)cccc12 (configuration not stated) — higher, 3.59
- OC(CC1CCCCN1)c1cc2c(Cl)cc(Cl)cc2c2ccccc12 (configuration not stated) — higher, 3.73
- OC(CC1CCCCN1)c1cc(-c2ccccc2)nc2c(Cl)cccc12 (configuration not stated) — within 0.2 log units, 2.69
- OC(CC1CCCCN1)c1cc2cc(C(F)(F)F)cc(C(F)(F)F)c2c2cc(Cl)ccc12 (configuration not stated) — higher, 4.72
- CCN(CC)CC(O)c1cc(-c2ccc(Cl)c(Cl)c2)nc(-c2ccc(Cl)c(Cl)c2)c1 (configuration not stated) — higher, 3.04
- OC(CC1CCCCN1)c1ccnc2c(Cl)cccc12 (configuration not stated) — lower, 2.01
- CCCN(CCC)CC(O)c1cc2ccc(Cl)c(Cl)c2c2cc(C(F)(F)F)ccc12 (configuration not stated) — higher, 4.03
- OC(CC1CCCCN1)c1cc2ccc(C(F)(F)F)cc2c2c(Cl)cc(Cl)cc12 (configuration not stated) — higher, 4.3
- CCCCN(CCCC)CC(O)c1cc2ccc(C(F)(F)F)cc2c2cc(Cl)ccc12 (configuration not stated) — higher, 3.88
- CCCCCCCN(CCCCCCC)CC(O)c1cc2ccc(C(F)(F)F)cc2c2cc(C(F)(F)F)ccc12 (configuration not stated) — higher, 3.89
- CCCCN(CCCC)CC(O)c1cc(-c2ccc(OC)cc2)nc2cc(Cl)c(OC)cc12 (configuration not stated) — higher, 3.32
- CCCCN(CCCC)CC(O)c1cc(-c2ccc(Br)cc2)nc(-c2ccc(C(F)(F)F)cc2)c1 (configuration not stated) — higher, 3.62
- OC(CC1CCCCN1)c1cc2c(Cl)cc(Cl)cc2c2ccc(Cl)cc12 (configuration not stated) — higher, 3.79
- Cc1cccc2c(C(O)CC3CCCCN3)cc(-c3ccccc3)nc12 (configuration not stated) — higher, 3.38
- CCCCN(CCCC)CC(O)c1cc2ccc(Br)cc2c2sccc12 (configuration not stated) — within 0.2 log units, 2.82
- CCCCCCCCN(CCCCCCCC)CC(O)c1ccnc2ccccc12 (configuration not stated) — lower, 2.44
- CCCCN(CCCC)CC(O)c1cc(-c2ccc(OC)cc2)nc2cc(OC)c(Cl)cc12 (configuration not stated) — within 0.2 log units, 2.71
- OC(CC1CCCCN1)c1cc2cc(Cl)ccc2c2c(C(F)(F)F)cccc12 (configuration not stated) — higher, 4.05
- CCCCN(CCCC)CC(O)c1cc(-c2ccc(Cl)cc2)nc(-c2ccc(C(F)(F)F)cc2)c1 (configuration not stated) — higher, 3.43
- CCOC(CCCNCC(O)c1cc2ccc(C(F)(F)F)cc2c2cc(C(F)(F)F)ccc12)OCC (configuration not stated) — higher, 3.55
- Cc1cc(C)c2nc(-c3ccc(F)cc3)cc(C(O)CC3CCCCN3)c2c1 (configuration not stated) — higher, 3.61
- CCCCN(CCCC)CC(O)c1cc(Cl)nc2ccccc12 (configuration not stated) — lower, 2.14
- CCCCN(CCCC)CC(O)c1cc2cc(Cl)cc(Cl)c2c2cc(Cl)ccc12 (configuration not stated) — higher, 4.21
- CCCCN(CCCC)CC(O)c1cc(Cl)cc2c1-c1ccc(Cl)cc1C2=O (configuration not stated) — higher, 3.39
- CC(C)N(C)CC(O)c1cc(-c2ccc(Cl)cc2)nc2c(Cl)cc(Cl)cc12 (configuration not stated) — higher, 3.72
- OC(CCC1CCCCN1)c1cc(C(F)(F)F)nc2c(C(F)(F)F)cccc12 (configuration not stated) — higher, 3.36
- OC(CCNC1CCCCC1)c1cc2ccc(C(F)(F)F)cc2c2cc(C(F)(F)F)ccc12 (configuration not stated) — higher, 4.53
- CCCCN(CCCC)CC(O)c1c2ccccc2c(Cl)c2ccccc12 (configuration not stated) — higher, 3.51
- Cc1cc(C)c2nc(Nc3ccc(Cl)cc3)cc(C(O)CC3CCCCN3)c2c1 (configuration not stated) — within 0.2 log units, 2.74
- CCCCN(CCCC)CC(O)c1cc(/C=C/c2ccc(C(F)(F)F)cc2)nc(-c2ccc(C(F)(F)F)cc2)c1 (configuration not stated) — higher, 4.26
- CCCCNCCC(O)c1c2ccccc2c(Cl)c2cc(C(F)(F)F)ccc12 (configuration not stated) — higher, 3
- CCCCCCCN(CCCCCCC)CC(O)c1cc2c(Cl)cc(Cl)cc2c2cc(Cl)sc12 (configuration not stated) — within 0.2 log units, 2.67
- CCCCN(CCCC)CC(O)c1cc2cc(Br)ccc2c2ccccc12 (configuration not stated) — higher, 3.5
- CCCCCCCN(CCCCCCC)CC(O)c1cccc2c1ccc1ccccc12 (configuration not stated) — within 0.2 log units, 2.58
- CCCCN(CCCC)CC(O)c1cc2ccc(Cl)cc2nc1-c1ccc(Cl)cc1 (configuration not stated) — lower, 2.2
- CCCCCCN(CCCCCC)CC(O)c1cc(-c2ccc(Cl)cc2)nc2c(Cl)cc(Cl)cc12 (configuration not stated) — higher, 3.37
- CCCN(CCC)CC(O)c1cccc2c1cc(Cl)c1ccccc12 (configuration not stated) — lower, 2.02
- CCCN(CCC)CC(O)c1cc2c(Cl)cc(Cl)cc2c2cc(Cl)ccc12 (configuration not stated) — higher, 4.19
- CCCCN(CCCC)CC(O)c1c(Br)c2cc(Br)ccc2c2ccc(Br)cc12 (configuration not stated) — higher, 3.09
- CCCCN(CCCC)CC(O)c1cc2cc(C(F)(F)F)ccc2c2ccccc12 (configuration not stated) — higher, 3.79
- CCCCCCN(CCCCCC)CC(O)c1cc(-c2ccc(OC)c(OC)c2)nc2cc(Cl)ccc12 (configuration not stated) — higher, 3.32
- Cc1ccc2c(C(O)CC3CCCCN3)cc3ccccc3c2c1 (configuration not stated) — within 0.2 log units, 2.83
- CCCCN(CCCC)CC(O)c1cc2ccsc2c2ccccc12 (configuration not stated) — lower, 2.38
- OC(CN1CCOCC1)c1cc(-c2ccccc2)nc2c(Cl)cc(Cl)cc12 (configuration not stated) — lower, 2.23
- CCCCN(CCCC)CC(O)c1cc(C23CC4CC(CC(C4)C2)C3)nc2ccc(Cl)cc12 (configuration not stated) — higher, 3.05
- CCCCN(CCCC)CC(O)c1cccc2ccc3cccc(Br)c3c12 (configuration not stated) — lower, 2.23
- CCCCN(CCCC)CC(O)c1cc2c(Cl)cc(Cl)cc2c2cc(C(F)(F)F)ccc12 (configuration not stated) — higher, 4.29
- CCCCCCCCN(CCCCCCCC)CC(O)c1cc(-c2ccc(OC)c(OC)c2)nc2ccc(Cl)cc12 (configuration not stated) — higher, 3.11
- CCCCN(CCCC)CC(O)c1cc2ccc(Cl)cc2c2cc(Cl)ccc12 (configuration not stated) — higher, 3.79
- CCCCCCCN(CCCCCCC)CC(O)c1cc2ccccc2c2ccc3ccccc3c12 (configuration not stated) — higher, 3.25
- CCCCN(CCCC)CC(O)c1ccnc2c1cnc1cc(Cl)ccc12 (configuration not stated) — lower, 2.11
- OC(CNC1CCCC1)c1cc(-c2ccccc2)nc2c(Cl)cc(Cl)cc12 (configuration not stated) — lower, 2.54
- CCCCCCN(CCCCCC)CC(O)c1cc(-c2cccc(C(F)(F)F)c2)nc2c(Cl)cc(Cl)cc12 (configuration not stated) — higher, 3.32
- OC(CC1CCCCN1)c1cc(-c2ccccc2)nc2c(Cl)cc(Cl)cc12 (configuration not stated) — higher, 3.9
- CCCCN(CCCC)CC(O)c1cc(-c2ccc(Cl)cc2)cc2ccccc12 (configuration not stated) — higher, 3.87
- CCCCCCCN(CCCCCCC)CC(O)c1ccc2cc3ccccc3cc2c1 (configuration not stated) — within 0.2 log units, 2.62
- CCCN(CCC)CC(O)c1cc2cc(Cl)ccc2c2cc(Cl)ccc12 (configuration not stated) — higher, 4.06
- OC(CC1CCCCN1)c1cc2c(Cl)c(Cl)ccc2c2cc(C(F)(F)F)ccc12 (configuration not stated) — higher, 4.45
- OC(CC1CCCCN1)c1cc(-c2ccc(Cl)cc2)nc2c1ccc1ccccc12 (configuration not stated) — higher, 3.2
- C=C[C@H]1CN2CC[C@H]1C[C@H]2[C@H](O)c1ccnc2ccc(OC)cc12.O=C(O)CCC(=O)O — lower, 2.28
- CCCCNCC(O)c1cc(-c2ccc(Br)cc2)nc(-c2ccc(C(F)(F)F)cc2)c1 (configuration not stated) — higher, 3.94
- CCCCCCCN(CCCCCCC)CC(O)c1cc2ccc(C(F)(F)F)cc2c2ccsc12 (configuration not stated) — within 0.2 log units, 2.69
- CCCCCCCN(CCCCCCC)CC(O)c1cc2cccc(Cl)c2c2ccccc12 (configuration not stated) — within 0.2 log units, 2.82
